Results as given in patent US4777049A, “Constant release system with pulsed release” (priority 1987, dated 1988).
Converted amounts (≈) assume the structure as drawn. Where two headings read alike, the source gives them in different places. Values belong to the compound of their own block, whether it stands above or below them.

Tests used:
gonadotropin secretion = settings: Drugs, Vol. 23, 207-226, 1982, cited from earlier work
[1] = cited from earlier work

Compound: C[C@]12CC[C@@H]3c4ccc(O)cc4CC[C@H]3[C@@H]1CC[C@@H]2O [estradiol]
effect on gonadotropin secretion (gonadotropin secretion; high pulsed doses): stimulates the ovulating surge
effect on gonadotropin secretion (gonadotropin secretion; low pulsed dose): inhibits

Compound: C[C@H]1C[C@@H]2[C@H]([C@@H](O)C[C@@]3(C)[C@H]2CC[C@]3(O)C(=O)CO)[C@@]2(C)C=CC(=O)C=C12 [methylprednisolone]
medical effect of pulsed treatment ([1]; collagenic and progressing glomerulonephritis): beneficial medical effect

Compound: CC[C@H](C)[C@@H]1NC(=O)[C@H](Cc2ccc(O)cc2)NC(=O)[C@@H](N)CSSC[C@@H](C(=O)N2CCC[C@H]2C(=O)N[C@@H](CC(C)C)C(=O)NCC(N)=O)NC(=O)[C@H](CC(N)=O)NC(=O)[C@H](CCC(N)=O)NC1=O [oxytocin]
medical effect of pulsed treatment ([1]; induction of labor): beneficial medical effect

Compound: CO[C@H]1/C=C/O[C@@]2(C)Oc3c(C)c(O)c4c(O)c(c(/C=N/N5CCN(C)CC5)c(O)c4c3C2=O)NC(=O)/C(C)=C\C=C\[C@H](C)[C@H](O)[C@@H](C)[C@@H](O)[C@@H](C)[C@H](OC(C)=O)[C@@H]1C [rifampicin]
medical effect of pulsed treatment ([1]; leprosy): beneficial medical effect

solubility (physchem; distilled water, water): 275 mg/mL (≈ 1150 mM)
solubility (physchem; saturated sodium chloride solution): 16 mg/mL (≈ 66.9 mM)
Compound: CC(C)(C)NCC(O)c1ccc(O)c(CO)c1 (centres unmarked) [salbutamol]

Compound: insulin
medical effect of pulsed treatment ([1]; control of hyperglycemia): beneficial medical effect
